Laboratory results reported in patent publication US6960347B2, “Composition based on N-cholesteryloxycarbonyl-4-para-aminophenol and hydroquinone or one of its derivatives” (L'Oreal, priority 2000, dated 2005).

System: fungal tyrosinase
Experiment: in vitro inhibition of the activity of fungal tyrosinase (absorbance at 475 nm)
Assay type: biochemical
Details: for molar concentration for which an inhibition value of 25% is observed: compound dissolved in ethanol, phosphate buffer, L-tyrosine and L-Dopa substrates, OD 475 nm
Method: This test involves in measuring the absorbance (optical density OD) at 475 nm as a function of time for the hydroquinone dissolved (at various concentrations) in ethanol in the presence of a phosphate buffer, 1 ml of L-tyrosine at 2.0×10^−3 M in a phosphate buffer, 0.1 ml of L-Dopa at 1.0×10^−4 M in a phosphate buffer and 50 μl of a solution of fungal tyrosinase at 1 g/l in a phosphate buffer, compared with a control consisting of ethanol (solvent) used at the same concentration in the phosphate buffer.
The percentage of inhibition is determined by the following equation: [formula]
The molar concentration of hydroquinone for which an inhibition value of 25% is observed is then determined.
The test described in Example 1 above is used, except that N-ethyloxycarbonyl-4-para-aminophenol was substituted for N-cholesteryloxycarbonyl-4-para-aminophenol.

## CC(C)CCC[C@@H](C)[C@H]1CC[C@H]2[C@@H]3CC=C4C[C@@H](OC(=O)Nc5ccc(O)cc5)CC[C@]4(C)[C@H]3CC[C@]12C [N-cholesteryloxycarbonyl-4-para-aminophenol]
Compound alone at C2=6.77×10^−5 M (solubility limit in DMSO)
  inhibition of tyrosinase: no inhibition

## CCOC(=O)Nc1ccc(O)cc1 [N-ethyloxycarbonyl-4-para-aminophenol]
  molar concentration for which an inhibition value of 25% is observed: 125 µM

## Oc1ccc(O)cc1 [hydroquinone]
  molar concentration for which an inhibition value of 25% is observed: 80 µM
